Source: PMC12374583, “Targeting complement C3 with Tanshinone I decreases microglia-mediated synaptic engulfment to exert antidepressant effects” (Theranostics, 2025)

Key:
C3 (BV2 cell proteins) [1] = biological target: T1, C3 (BV2 cell proteins) (Mus musculus, UniProt P01027); test: DARTS (Pronase), MS and Western blot; assay type: biochemical; conditions: 200 µM Tan I, 1 h; Pronase 30 min
T1 construct: endogenous C3 in BV2 (mouse microglial line) protein extract; detected by Western blot, 130-250 kDa band identified by MS

C3 (BV2 cell proteins) [2] = biological target: T1, C3 (BV2 cell proteins); test: CETSA in BV2 protein extract, Western blot; assay type: biochemical; conditions: Tan I 1 h; 40-65 °C, 3 min
[3] = biological target: T2, C3 (complement C3), RED-NHS labelled; test: microscale thermophoresis (Monolith NT.[…]); assay type: binding; conditions: 25 °C, PBS with 5% DMSO compound stocks, Tan I up to 25 µM
T2 construct: human purified C3 equally possible

T1 sequence (P01027 25-666): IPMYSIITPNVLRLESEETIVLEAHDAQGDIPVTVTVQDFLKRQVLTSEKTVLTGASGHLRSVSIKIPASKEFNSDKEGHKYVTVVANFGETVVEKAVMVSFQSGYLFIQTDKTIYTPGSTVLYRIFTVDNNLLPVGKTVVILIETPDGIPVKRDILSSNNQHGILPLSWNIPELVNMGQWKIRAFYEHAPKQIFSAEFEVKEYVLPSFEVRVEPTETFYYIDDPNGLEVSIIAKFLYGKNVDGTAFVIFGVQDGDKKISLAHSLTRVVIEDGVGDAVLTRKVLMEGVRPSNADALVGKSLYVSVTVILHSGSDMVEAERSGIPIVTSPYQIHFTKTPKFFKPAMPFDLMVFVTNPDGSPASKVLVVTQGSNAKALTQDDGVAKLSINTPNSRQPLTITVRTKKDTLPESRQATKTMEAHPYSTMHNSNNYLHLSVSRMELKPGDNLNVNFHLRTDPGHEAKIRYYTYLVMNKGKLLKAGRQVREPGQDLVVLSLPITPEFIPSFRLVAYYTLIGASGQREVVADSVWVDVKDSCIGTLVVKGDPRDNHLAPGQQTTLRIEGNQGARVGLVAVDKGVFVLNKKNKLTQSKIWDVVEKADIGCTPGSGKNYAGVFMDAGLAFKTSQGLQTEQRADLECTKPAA
T1 sequence (P01027 671-1663): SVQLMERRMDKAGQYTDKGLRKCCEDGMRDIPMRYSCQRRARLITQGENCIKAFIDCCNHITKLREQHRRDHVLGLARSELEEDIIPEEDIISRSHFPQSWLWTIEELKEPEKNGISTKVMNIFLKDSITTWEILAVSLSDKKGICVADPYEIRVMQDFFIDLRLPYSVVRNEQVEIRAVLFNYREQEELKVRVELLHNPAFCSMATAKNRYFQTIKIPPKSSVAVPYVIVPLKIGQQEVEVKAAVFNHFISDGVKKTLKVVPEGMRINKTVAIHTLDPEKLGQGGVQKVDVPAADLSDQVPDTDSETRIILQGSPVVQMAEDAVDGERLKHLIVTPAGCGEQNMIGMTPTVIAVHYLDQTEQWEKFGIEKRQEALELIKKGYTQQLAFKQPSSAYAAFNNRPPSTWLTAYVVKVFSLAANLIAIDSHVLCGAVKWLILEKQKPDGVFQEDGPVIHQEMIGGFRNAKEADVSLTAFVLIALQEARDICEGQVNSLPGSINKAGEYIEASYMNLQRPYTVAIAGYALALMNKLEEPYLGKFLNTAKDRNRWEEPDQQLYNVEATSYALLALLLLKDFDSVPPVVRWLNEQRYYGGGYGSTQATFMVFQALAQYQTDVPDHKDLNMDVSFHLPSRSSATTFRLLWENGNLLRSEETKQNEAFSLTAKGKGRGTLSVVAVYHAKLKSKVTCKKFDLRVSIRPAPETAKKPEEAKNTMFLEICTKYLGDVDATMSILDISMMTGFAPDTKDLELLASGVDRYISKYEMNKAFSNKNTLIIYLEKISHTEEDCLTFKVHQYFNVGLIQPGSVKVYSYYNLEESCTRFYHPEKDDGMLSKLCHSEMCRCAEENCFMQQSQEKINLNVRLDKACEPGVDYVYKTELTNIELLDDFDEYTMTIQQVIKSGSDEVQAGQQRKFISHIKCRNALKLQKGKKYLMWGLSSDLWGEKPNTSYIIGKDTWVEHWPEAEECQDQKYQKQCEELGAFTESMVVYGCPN

In the case of Cc1coc2c1C(=O)C(=O)c1c-2ccc2c(C)cccc12 [Tan I], the “protection from proteolysis (DARTS)” value (C3 (BV2 cell proteins) [1]) is reported as “Tan I protected C3 from proteolytic degradation”, the “thermal stabilisation (CETSA)” value (C3 (BV2 cell proteins) [2]) is reported as “Tan I significantly enhances the thermal stability of C3 in a certain temperature range” and the Kd [3] is reported as 3.75 ± 3.31 µM.
